The series has as its target Estrogen receptor (Rattus norvegicus) (UniProt P06211). The series is described as follows: DSSTox (KIERBL) EPA Estrogen Receptor Ki Binding Study (Laws et al.) Database. The following applies: Rat uterine cytosol ER, 3H-estradiol competitive binding. The protocol: This study was conducted by EPA researchers to evaluate the validity of the rat uterine cytosolic (RUC) estrogen receptor (ER) competitive binding assay for use in the Endocrine Disruption Screening Program (EDSP). The assay measures the ability of radiolabeled 17-beta-estradiol (3H-E2) to bind with RUC ER in the presence of increasing concentrations of a test chemical. The goal is to employ this in vitro assay as a 1st tier screening tool for assessing the potential of structurally diverse environmental chemicals to bind to the ER, as well as to support research efforts to develop computational models to predict ER binding. A distinguishing feature of the present study was the use of secondary experimental analysis of binding curves and determination of Ki values to confirm that measured IC50 values corresponded to true positive results. The study concluded that a number of experimental conditions can confound interpretation of IC50 values obtained from the RUC ER-binding assay data and lead to false positive results. In particular, some chemical treatments likely alter the stability of the assay by changing the buffer pH, denaturing ER, or disrupting the ER binding kinetics. […] The chemicals used in this study were selected as part of a validation test for two Quantitative Structure-Activity Relationship (QSAR) models designed to predict ER binding [Fed. Reg. 67(250), 79618, Dec. 30, 2002]. Several hundred chemicals were initially screened, including approximately 100 chemicals selected from among the High Production Volume (HPV) chemicals included in EPA's Toxic Substances Control Act (TSCA) inventory that were predicted to be positive for ER binding, with the rest selected at random from the TSCA inventory. All chemicals were initially tested in ER competitive binding assays by Battelle Pacific Northwest Laboratories, Richland, Washington [EPA Contract Number 68-W-99-033, Task 6]. Approximately 50 chemicals produced binding curves that: (1) strongly implied competitive inhibition of ER binding, or (2) produced partial curves or irregular (non-sigmoid) binding curves. These chemicals were further evaluated in an ER competitive binding assay with secondary analysis to confirm true competitive inhibition and to determine an experimental Ki [U.S. EPA Contract 3D-5967-NTEX]. The results of RUC ER screening for these 50 structurally diverse chemicals, for which secondary confirmatory analyses were performed, were published in the Main Citation (Laws et al., 2006, Tox. Sci. 94:46-56). The remaining 228 chemicals were designated as non-binders based on initial screening studies.
The DSSTox KIERBL data files include all published IC50 and Ki experimental results for the 50 chemicals included in the Main Citation (Laws et al., 2006) (denoted Group 1), as well as previously unpublished results for an additional 228 structually diverse TSCA chemicals for which no ER binding was observed (denoted Group 2. IC50 values were determined for 32 compounds in Group 1 as the concentration of a test chemical that inhibits the maximal specific binding of 0.33 nM radiolabeled (3H) 17-beta-estradiol (E2) to rat uterine cytosolic (RUC) estrogen receptor (ER) by 50%. Confirmation of binding status was accomplished by secondary analysis using Lineweaver-Burk plots and slope replots to determine true competitive inhibition and an experimental Ki value. Ki is the inhibition constant for the test chemical, i.e., the concentration of the test chemical that will bind to half the binding sites at equilibrium (displacing half of the probe-bound receptors), in the absence of radioligand or other competitors. Ki reported as Mean +/- Standard Error from n=2 experiments (see StandardError_Ki_n2) and is determined from Lineweaver-Burk plots over the tested dose range (TestedRange_microM). For more information see BindingCurve_Group and BindingCurve_Details. […]

Active and inactive are the calls of the source.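 How the source made its calls: active means chemicals shown by follow-up kinetic tests to compete for rat estrogen receptor sites, with a measured inhibition constant; inconclusive means some binding seen but constant unmeasurable owing to poor solubility; inactive means no binding up to top dose, or binding unconfirmed.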

Chain of Estrogen receptor (Rattus norvegicus) (P06211 whole entry, looked up): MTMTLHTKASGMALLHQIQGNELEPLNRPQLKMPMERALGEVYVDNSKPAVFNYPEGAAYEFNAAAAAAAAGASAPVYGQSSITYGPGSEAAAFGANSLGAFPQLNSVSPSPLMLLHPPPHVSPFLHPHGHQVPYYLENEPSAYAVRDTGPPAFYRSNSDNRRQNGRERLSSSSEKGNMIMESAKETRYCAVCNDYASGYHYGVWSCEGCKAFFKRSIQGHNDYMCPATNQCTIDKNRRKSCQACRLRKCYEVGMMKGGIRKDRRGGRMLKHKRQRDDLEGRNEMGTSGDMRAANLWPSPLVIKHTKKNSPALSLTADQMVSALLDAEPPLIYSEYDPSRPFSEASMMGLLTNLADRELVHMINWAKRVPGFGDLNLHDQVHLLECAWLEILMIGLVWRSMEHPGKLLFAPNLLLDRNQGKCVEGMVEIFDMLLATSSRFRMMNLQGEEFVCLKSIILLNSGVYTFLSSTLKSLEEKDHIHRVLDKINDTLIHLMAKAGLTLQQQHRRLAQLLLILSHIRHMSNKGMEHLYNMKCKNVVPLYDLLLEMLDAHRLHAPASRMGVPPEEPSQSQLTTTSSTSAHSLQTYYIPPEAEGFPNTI

On to `CC(C)CCCCCCc1ccc(O)cc1`, for which the Potency (TestedRange_microM: 0.6-1.2) was 0.6 µM.

For `CC(C)CC(=O)O`, the outcome is “inactive; none”.

Consider `OC1OCCOC1O` (stereo not given), for which the outcome was “inactive; none”.

As for `CCN(CC)c1ccc(N)c(C)c1`, the outcome was “inactive; none”.

`CCN(CC)c1ccc(C(=C2C=CC(=[N+](CC)CC)C=C2)c2ccc(N(CC)CC)cc2)cc1`: the outcome was “inactive; none”.

With `CC(C)N`, the outcome is “inactive; none”.

Consider `CC(C)(C)c1cc(C(C)(C)c2ccc(O)c(C(C)(C)C)c2)ccc1O`, for which the outcome was “inactive; incomplete”.

On to `Cc1cc(Cc2cc(C)cc(C(C)(C)C)c2O)c(O)c(C(C)(C)C)c1`, for which the outcome was “inactive; none”.

As to `O=C(OCc1ccccc1)c1ccccc1O`, the outcome is “inactive; incomplete”.

Regarding `OC1CCCCC1`, the outcome is “inactive; none”.

As for `N#CCC(=O)O`, the outcome was “inactive; none”.

`CCCCCCCc1ccc(O)cc1`: the Potency (TestedRange_microM: 44-178) was 177 µM.

Turning to `CC(C)(C)c1cc(Cc2cc(C(C)(C)C)c(O)c(C(C)(C)C)c2)cc(C(C)(C)C)c1O`, the outcome was “inactive; none”.

Turning to `CCCCCCOc1ccccc1C(=O)O`, the outcome is “inactive; none”.

As for `CCOc1ccc(NC(C)=O)cc1`, the outcome was “inactive; none”.

For the compound `CO[Si](CCCCl)(OC)OC`, the outcome is “inactive; none”.

As for `CSc1ccc(C(=O)C(C)(C)N2CCOCC2)cc1`, the outcome was “inactive; none”.

For `CCc1ccc(Br)cc1`, the outcome is “inactive; incomplete”.

In the case of `COc1cc(S(=O)(=O)O)c(C)cc1N=Nc1c(O)ccc2cc(S(=O)(=O)O)ccc12`, the outcome is “inactive; none”.

For the compound `C=C(C)C(=O)OCCOCC`, the outcome was “inactive; none”.

As to `Nc1ccc(F)c(Cl)c1`, the outcome is “inactive; none”.

Regarding `CCCCCN(CCCCC)CCCCC`, the outcome was “inactive; none”.

For the compound `O=C(Oc1cccc(O)c1)c1ccccc1`, the outcome is “inactive; none”.

Turning to `ClCC1OCCO1`, the outcome is “inactive; none”.

In the case of `CC(=O)CC(=O)N(C)C`, the outcome was “inactive; none”.

Regarding `COc1cc(Cl)c(OC)cc1Cl`, the outcome was “inactive; none”.

For the compound `CC(CO)c1ccccc1` (stereo not given), the outcome is “inactive; incomplete”.

Take `COC(=O)C(C)O` (stereo not given): the outcome was “inactive; none”.

`O=C(Cl)c1ccccc1C(=O)Cl`: the outcome is “inactive; none”.

Turning to `Nc1ccc(/C=C/c2ccc(N)cc2S(=O)(=O)O)c(S(=O)(=O)O)c1`, the outcome was “inactive; none”.

As to `CC(O)C(=O)O` (stereo not given), the outcome is “inactive; none”.

In the case of `CCCCCCCCCCCCCCCCCCCCCCCCO`, the outcome is “inactive; none”.

For the compound `CCCCCCCCCCCCCCCCCCN=C=O`, the outcome is “inactive; none”.

Regarding `c1ccc(CNc2ncnc3c2ncn3C2CCCCO2)cc1` (stereo not given), the outcome was “inactive; none”.

In the case of `CCCCCCCCCCCCCCCCCC[N+](C)(C)CCC[Si](OC)(OC)OC`, the outcome (TestedRange_microM: 0.5-10) is “inactive; irregular”.

Take `C(=NC1CCCCC1)=NC1CCCCC1`: the outcome was “inactive; none”.

Consider `CC(C)(c1ccc(O)cc1)c1ccc(O)cc1`, for which, for the setting “TestedRange_microM: 25-75”, the Potency was 24.8 µM.

On to `CCCCCCC1CCC(=O)O1` (stereo not given), for which the outcome was “inactive; none”.

On to `CC(c1cc(C(C)(C)C)cc(C(C)(C)C)c1O)c1cc(C(C)(C)C)cc(C(C)(C)C)c1O`, for which the outcome is “inactive; none”.

Consider `COCCOC(=O)CC#N`, for which the outcome was “inactive; none”.

With `CC(C)Oc1cc(-n2nc(C(C)(C)C)oc2=O)c(Cl)cc1Cl`, the outcome is “inactive; none”.

For the compound `O=C(Oc1ccccc1)c1ccc2ccccc2c1O`, the outcome is “inactive; none”.

Take `O=C(n1ccnc1)n1ccnc1`: the outcome was “inactive; none”.

Regarding `COc1cc([N+](=O)[O-])ccc1N`, the outcome was “inactive; none”.

As to `O=C(O)C1CCC(C(=O)O)CC1` (stereo not given), the outcome is “inactive; none”.

The values are drawn from PubChem BioAssay AID1576 (EPA DSSTox, 2009).
